Test results taken from US20230150981A1, “N-HETEROARYLALKYL-2-(HETEROCYCLYL AND HETEROCYCLYLMETHYL) ACETAMIDE DERIVATIVES AS SSTR4 AGONISTS” (Takeda Pharmaceutical Compnay Limited, priority 2020, published 2023).

Key:
[1] = biological target: T1, SSTR4 (Homo sapiens, UniProt P31391); experiment: Inhibition of forskolin stimulated cAMP in CHO-K1 cells overexpressing SSTR4; assay type: cell-based; details: read-out: SSTR4 Activity pEC50 (converted)
T1 construct: host or cells: CHO-K1
Procedure, shortened: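 CHO-K1 cells overexpressing SSTR4 treated 30 min at room temperature with compound in Krebs Ringer buffer containing 0.5% BSA, 300 μM IBMX and 350 nM forskolin. Intracellular cAMP measured by HTRF LANCE Ultra (665/615 nm); pEC50 values reported.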

[2] = biological target: T1, SSTR4; experiment: SSTR4 I-125 somatostatin competition binding assay (CHO-K1 membranes); details: competition with I-125 somatostatin, membranes from CHO-K1 overexpressing SSTR4; read-out: SSTR4 Binding pIC50 (converted)
Experimental: SSTR4 I-125 Somatostatin Competition Binding Assay
Membranes from CHO-K1 cells overexpressing SSTR4 are purchased from Perkin Elmer (catalog number ES-524-M400UA). Test compounds are suspended in DMSO and then diluted in assay buffer (25 mM HEPES pH 7.4, 10 mM MgCl2, 1 mM CaCl2), 0.5% BSA) plus 0.2 nM I-125 labeled somatostatin (Perkin Elmer catalog number NEX389). Fifty μL of compound/I-125 somatostatin in assay buffer are added per well to 96-well poly-propylene plate. Then 1 μg of SSTR4 membranes in 50 μL assay buffer are added per well. The Plate is incubated for 60 minutes at room temperature. FilterMat A filters (Perkin Elmer catalog number 1450-421) are pre-soaked in 0.5% PEI (Sigma catalog number P3143). The contents of the assay plate are transferred to filters with a TomTech harvester and washed 5 times with 20 mM HEPES, 100 mM NaCl. The filters are dried in a microwave oven then transferred to sample bag containing a scintillator sheet (Perkin Elmer catalog number 1450-441). The scintillator sheets are melted to filters using a heat block. The filters are then read in a MicroBeta scintillation counter. Binding Ki curves are generated using Activity Base for Screening Data Management and the results are reported as pIC50.

[3] = biological target: T2, SSTR1 (Homo sapiens, UniProt P30872); experiment: SSTR1 I-125 somatostatin competition binding assay for selectivity versus SSTR1 (CHO-K1 membranes); details: competition with I-125 somatostatin, membranes from CHO-K1 overexpressing SSTR1; read-out: SSTR1 Binding pIC50 (converted)
T2 construct: purchased Perkin Elmer ES-520-M400UA; host or cells: CHO-K1 membranes
Experimental: SSTR1 I-125 Somatostatin Competition Binding Assay for Selectivity Versus SSTR1
Membranes from CHO-K1 cells overexpressing SSTR1 are purchased from Perkin Elmer (catalog number ES-520-M400UA). Test compounds are suspended in DMSO and then diluted in assay buffer (25 mM HEPES pH 7.4, 10 mM MgCl2, 1 mM CaCl2), 0.5% BSA) plus 0.4 nM I-125 labeled somatostatin (Perkin Elmer catalog number NEX389). Fifty μL of compound/I-125 somatostatin in assay buffer are added per well to 96-well poly-propylene plate. Then 10 μg of SSTR1 membranes in 50 μL assay buffer are added per well. The plate is incubated for 60 minutes at room temperature. FilterMat A filters (Perkin Elmer catalog number 1450-421) are pre-soaked in 0.5% PEI (Sigma catalog number P3143). The contents of the assay plate are transferred to filters with a TomTech harvester and washed 5 times with 20 mM HEPES, 100 mM NaCl. The filters are dried in a microwave oven then transferred to sample bag containing a scintillator sheet (Perkin Elmer catalog number 1450-441). The scintillator sheets are melted to the filters using a heat block. The filters are then read in a MicroBeta scintillation counter. Binding Ki curves are generated using Activity Base for Screening Data Management and the results are reported as pIC50.

T2 sequence (P30872 whole entry): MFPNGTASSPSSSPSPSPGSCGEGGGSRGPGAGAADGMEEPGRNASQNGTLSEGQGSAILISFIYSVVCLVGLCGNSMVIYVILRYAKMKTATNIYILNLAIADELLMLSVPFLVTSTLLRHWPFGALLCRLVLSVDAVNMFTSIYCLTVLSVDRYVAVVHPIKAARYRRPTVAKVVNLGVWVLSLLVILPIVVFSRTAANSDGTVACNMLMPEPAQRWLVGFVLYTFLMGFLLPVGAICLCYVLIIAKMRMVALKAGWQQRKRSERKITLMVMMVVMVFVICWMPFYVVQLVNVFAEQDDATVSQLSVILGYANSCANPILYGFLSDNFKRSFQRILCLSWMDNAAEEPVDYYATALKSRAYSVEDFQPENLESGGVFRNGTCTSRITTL
T1 sequence (P31391 whole entry): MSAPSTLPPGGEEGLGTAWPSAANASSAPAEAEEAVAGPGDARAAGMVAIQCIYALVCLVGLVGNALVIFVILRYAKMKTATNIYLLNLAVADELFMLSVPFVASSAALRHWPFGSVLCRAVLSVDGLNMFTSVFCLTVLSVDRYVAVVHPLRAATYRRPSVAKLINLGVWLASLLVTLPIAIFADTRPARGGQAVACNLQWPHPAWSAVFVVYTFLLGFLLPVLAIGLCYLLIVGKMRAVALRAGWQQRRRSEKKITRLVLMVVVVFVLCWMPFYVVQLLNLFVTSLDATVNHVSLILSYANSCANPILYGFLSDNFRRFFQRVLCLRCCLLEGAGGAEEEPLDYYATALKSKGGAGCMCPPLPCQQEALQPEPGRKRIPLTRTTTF

SMILES	EC50 [1]	IC50 [2]	IC50 [3]
CC(C)(NC(=O)CCN1CCC1)c1cccc(Cl)c1 [Example 164, 3-(azetidin-1-yl)-N-(2-(3-chlorophenyl)propan-2-yl)propanamide]	12.6 nM	39.8 nM	31600 nM
Cc1cccc2c(C(C)(C)NC(=O)C[C@H]3CCCCN3C)nccc12 (single isomer, unassigned) [Example 8]	2.51 nM	50.1 nM	3980 nM
CN1CCC[C@@H]1CC(=O)NC(C)(C)[C@@H]1CCc2ccccc2O1 (single isomer, unassigned) [Example 131]	50.1 nM	251 nM	12600 nM
CN1CCCCC1CC(=O)NC(C)(C)c1ccc(Cl)cc1 (stereo not drawn) [Example 30, N-(2-(4-chlorophenyl)propan-2-yl)-2-(1-methylpiperidin-2-yl)acetamide]	31.6 nM	126 nM	31600 nM
Cc1ccc(C(C)(C)NC(=O)[C@@H](C)CN2CCC2)cc1 (single isomer, unassigned) [Example 149]	3.16 nM	50.1 nM	6310 nM
CC[C@@H](CN1CCC1)C(=O)NC(C)(C)c1ccc(C)cc1 (single isomer, unassigned) [Example 187]	0.794 nM	20 nM	1580 nM
CC(C)(NC(=O)CCN1CCC1)c1cccc(F)c1 [Example 163, 3-(azetidin-1-yl)-N-(2-(3-fluorophenyl)propan-2-yl)propanamide]	25.1 nM	398 nM	> 50100 nM
Cc1cccc(C(C)(C)NC(=O)C[C@@H]2CCCN2C)c1Cl [Example 88, (S)-N-(2-(2-chloro-3-methylphenyl)propan-2-yl)-2-(1-methylpyrrolidin-2-yl)acetamide]	63.1 nM	398 nM	39800 nM
CN1CCC[C@@H]1CC(=O)NC(C)(C)c1ccc(Cl)cc1 [Example 40, (R)-N-(2-(4-chlorophenyl)propan-2-yl)-2-(1-methylpyrrolidin-2-yl)acetamide]	50.1 nM	200 nM	20000 nM
CCN1CCCC1CC(=O)NC(C)(C)COc1ncccc1C(F)(F)F (stereo not drawn) [Example 50, 2-(1-ethylpyrrolidin-2-yl)-N-(2-methyl-1-((3-(trifluoromethyl)pyridin-2-yl)oxy)propan-2-yl)acetamide]	15.8 nM	126 nM	12600 nM
Cc1cccc2c(C(C)(C)NC(=O)C[C@H]3CCCN3C)noc12 [Example 19, (R)-N-(2-(7-methylbenzo[d]isoxazol-3-yl)propan-2-yl)-2-(1-methylpyrrolidin-2-yl)acetamide]	12.6 nM	126 nM	10000 nM
CC(C)[C@@H](CN1CCC1)C(=O)N[C@H](c1ccccc1)C(F)F [Example 179, (S)-2-(azetidin-1-ylmethyl)-N-((R)-2,2-difluoro-1-phenylethyl)-3-methylbutanamide]	0.2 nM	2 nM	251 nM
Cc1cccc2c(C(C)(C)NC(=O)C[C@@H]3CCCN3C)noc12 [Example 21, (S)-N-(2-(7-methylbenzo[d]isoxazol-3-yl)propan-2-yl)-2-(1-methylpyrrolidin-2-yl)acetamide]	12.6 nM	79.4 nM	25100 nM
CN1CCC[C@@H]1CC(=O)NC(C)(C)COc1ncccc1C(F)(F)F [Example 49, (R)-N-(2-methyl-1-((3-(trifluoromethyl)pyridin-2-yl)oxy)propan-2-yl)-2-(1-methylpyrrolidin-2-yl)acetamide]	25.1 nM	200 nM	15800 nM
CC(C)[C@@H](CN1CCC1)C(=O)N[C@H](c1ccc(F)cc1)C(F)F [Example 196, (S)-2-(azetidin-1-ylmethyl)-N-((R)-2,2-difluoro-1-(4-fluorophenyl)ethyl)-3-methylbutanamide]	0.2 nM	3.16 nM	501 nM
